{"source": "patent US7220858B2", "about": "“Synthesis of hydrazine and chlorinated derivatives of bicyclic pyridazines” (Barbeau Pharma, Inc., priority 2003, dated 2007)", "origin": "cited, not measured here", "key": {"[1]": {"conditions": "in the presence of oxygen and metal ions such as Cu+2, Fe+2, and Fe+3"}, "[2]": {"system": "vascular smooth muscle"}}, "note": "Where two headings read alike, the source gives them in different places.", "data": [{"smiles": "NNc1nncc2ccccc12", "note": "[Hydralazine, 1-hydrazinophthalazine]", "values": [{"measurement": "oxidation", "setting": "[1]", "value": "oxidizes rapidly"}, {"measurement": "onset of action", "setting": "[2]; given intravenously", "value": "10 to 20", "unit": "min"}, {"measurement": "metabolism and excretion", "setting": "[2]; in the body", "value": "extensively metabolized in the body to products that are excreted predominantly in the urine"}, {"measurement": "duration of action", "setting": "[2]; in vivo", "value": "3 to 4", "unit": "h"}, {"measurement": "onset of action", "setting": "[2]; in vivo", "value": "10 to 30", "unit": "min"}, {"measurement": "time to maximum hypotensive effect", "setting": "[2]; in vivo", "value": "10 to 80", "unit": "min"}]}]}
